Experimental data from PubChem BioAssay (NCI).
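Protocol summary: plate cells (96-well), add compound at 5 concentrations, incubate 48 h, interpolate endpoints linearly. At the TGI there is no net growth.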

Experiments:
Assay in all cases: NCI-60 cell line screen, 48 h
[1] = system: LOX IMVI melanoma
[2] = system: IGROV1 ovarian
[3] = system: MOLT-4 leukemia
[4] = system: UACC-257 melanoma
[5] = system: COLO 205 colon
[6] = system: SK-MEL-2 melanoma
[7] = system: MDA-MB-231 breast
[8] = system: SNB-75 CNS
[9] = system: OVCAR-5 ovarian
[10] = system: 786-0 renal
[11] = system: UACC-62 melanoma
[12] = system: BT-549 breast
[13] = system: SK-MEL-5 melanoma
[14] = system: A498 renal
[15] = system: SR leukemia
[16] = system: ACHN renal
[17] = system: RPMI-8226 leukemia
[18] = system: TK-10 renal
[19] = system: NCI-H226 lung
[20] = system: NCI/ADR-RES ovarian
[21] = system: UO-31 renal
[22] = system: SN12C renal
[23] = system: SK-OV-3 ovarian
[24] = system: SNB-19 CNS
[25] = system: NCI-H460 lung
[26] = system: OVCAR-8 ovarian
[27] = system: OVCAR-3 ovarian
[28] = system: PC-3 prostate
[29] = system: SF-539 CNS
[30] = system: SK-MEL-28 melanoma
[31] = system: M14 melanoma
[32] = system: HCT-116 colon
[33] = system: EKVX NSCLC
[34] = system: U251 CNS
[35] = system: K-562 leukemia
[36] = system: HCT-15 colon
[37] = system: RXF 393 renal
[38] = system: HOP-62 NSCLC
[39] = system: SF-295 CNS
[40] = system: SW-620 colon
[41] = system: CAKI-1 renal
[42] = system: NCI-H23 lung
[43] = system: KM12 colon
[44] = system: SF-268 CNS
[45] = system: MALME-3M melanoma
[46] = system: MCF7 breast
[47] = system: A549 NSCLC
[48] = system: MDA-N
[49] = system: OVCAR-4 ovarian
[50] = system: DU-145 prostate
[51] = system: HT29 colon
[52] = system: HL-60(TB) leukemia
[53] = system: T-47D breast
[54] = system: HOP-92 NSCLC
[55] = system: HS 578T breast
[56] = system: NCI-H522 lung
[57] = system: HCC-2998 colon
[58] = system: CCRF-CEM leukemia
[59] = system: MDA-MB-435

COC(=O)C1=COC(OC2OC(CO)C(O)C(O)C2O)C2C3CN4CCc5c([nH]c6ccccc56)C4(CC12)O3 (centres undefined)
TGI [1]: > 100 µM | TGI [2]: > 100 µM | TGI [3]: > 100 µM | TGI [4]: > 100 µM | TGI [5]: > 100 µM | TGI [6]: > 100 µM | TGI [7]: > 100 µM | TGI [8]: > 100 µM | TGI [9]: > 100 µM | TGI [10]: > 100 µM | TGI [11]: > 100 µM | TGI [12]: > 100 µM | TGI [13]: > 100 µM | TGI [14]: > 100 µM | TGI [15]: > 100 µM | TGI [16]: > 100 µM | TGI [17]: > 100 µM | TGI [18]: > 100 µM | TGI [19]: > 100 µM | TGI [20]: > 100 µM | TGI [21]: > 100 µM | TGI [22]: > 100 µM | TGI [23]: > 100 µM | TGI [24]: > 100 µM | TGI [25]: > 100 µM | TGI [26]: > 100 µM | TGI [27]: > 100 µM | TGI [28]: > 100 µM | TGI [29]: > 100 µM | TGI [30]: > 100 µM | TGI [31]: > 100 µM | TGI [32]: > 100 µM | TGI [33]: > 100 µM | TGI [34]: > 100 µM | TGI [35]: > 100 µM | TGI [36]: > 100 µM | TGI [37]: > 100 µM | TGI [38]: > 100 µM | TGI [39]: > 100 µM | TGI [40]: > 100 µM | TGI [41]: > 100 µM | TGI [42]: > 100 µM | TGI [43]: > 100 µM | TGI [44]: 91.1 µM | TGI [45]: > 100 µM | TGI [46]: > 100 µM | TGI [47]: > 100 µM | TGI [48]: > 100 µM | TGI [49]: > 100 µM | TGI [50]: > 100 µM | TGI [51]: > 100 µM | TGI [52]: > 100 µM | TGI [53]: > 100 µM

CCCN(CCC)C(=S)N/N=C/c1ccccn1
TGI [1]: 13.4 µM | TGI [4]: 0.195 µM | TGI [5]: 0.509 µM | TGI [6]: 14.9 µM | TGI [8]: 0.413 µM | TGI [54]: 26.7 µM | TGI [9]: 21.4 µM | TGI [10]: 1.07 µM | TGI [11]: 1.91 µM | TGI [55]: > 100 µM | TGI [12]: 22.5 µM | TGI [13]: 0.954 µM | TGI [14]: 4.03 µM | TGI [15]: 0.247 µM | TGI [16]: 0.384 µM | TGI [56]: 1.67 µM | TGI [17]: 0.566 µM | TGI [18]: 15.1 µM | TGI [19]: 1.14 µM | TGI [20]: < 0.0354 µM | TGI [21]: 4 µM | TGI [22]: 0.678 µM | TGI [57]: 19.6 µM | TGI [23]: 28.6 µM | TGI [24]: 32.1 µM | TGI [25]: 0.187 µM | TGI [26]: 11.9 µM | TGI [28]: 16.1 µM | TGI [29]: 0.734 µM | TGI [58]: 0.255 µM | TGI [30]: > 63.9 µM | TGI [31]: 0.281 µM | TGI [32]: 1.58 µM | TGI [33]: 11.3 µM | TGI [34]: > 25.4 µM | TGI [59]: 18.8 µM | TGI [36]: 16.8 µM | TGI [37]: 3.41 µM | TGI [38]: 3.18 µM | TGI [39]: 21.7 µM | TGI [40]: 28.6 µM | TGI [41]: 15.9 µM | TGI [42]: 19.5 µM | TGI [43]: 16.1 µM | TGI [45]: 6.05 µM | TGI [47]: 11.9 µM | TGI [48]: 14.8 µM | TGI [49]: 0.9 µM | TGI [50]: > 43.8 µM | TGI [51]: > 37.4 µM | TGI [52]: 0.207 µM
